In patent US20250018049A1, “COMPOUNDS FOR DEGRADING CYCLIN-DEPENDENT KINASE 2 VIA UBIQUITIN PROTEOSOME PATHWAY” (NIKANG THERAPEUTICS, INC., priority 2020, published 2025):

Assays:
[1] = target: T1, CDK2 (Homo sapiens, UniProt P24941); experiment: Phospho-Rb HTRF measurement in OVCAR3 cells (inhibition of CDK2); assay type: cell-based; parameters: High-Throughput Measurement of Cellular Endogenous CDK2; endogenous in cells; host or cells: OVCAR3; conditions: pRB(S807/811) assay, 24 h compound treatment
Protocol: Phosphorylation of RB protein at S780 and S807/811 were measured using HTRF phospho-RB cellular kits (Cat #64RBS780PEG and 64RBS807PEG) from Cisbio.
On Day 1, OVCAR3 or KYSE520 cells were seeded into 96-well tissue-culture treated plates at 20,000 cells/well in 200 μL and incubated overnight at 37° C. in CO2 atmosphere. On Day 2, the cells were treated with test compounds at concentrations from 0.3 to 10,000 nM using HP D300 digital dispenser. Twenty-four hours after compound treatment, cell culture media was removed by flicking the plate and tapping the plate against clean paper towel. Immediately 30 μL 1× lysis buffer was supplemented from the kit and the plate was incubated at room temperature on shaker for 30 min. After homogenization by pipetting up and down, 8 μL cell lysate from 96-well cell culture plate was transferred to 384-well small volume white detection plate. 2 μL premixed detection solution was added and the plate was covered with sealer. To prepare the detection solution, d2 conjugated-phospho-RB antibody and Eu-cryptate conjugated phosphor-RB antibody were diluted into detection buffer following manufacturer's instruction. Detection plates were incubated for 4 h at room temperature and read on ClarioStar (BMG Labtech) in TR-FRET mode (665 nM and 620 nM). The TR-FRET ratio (665 nM/620 nM) was plotted against the compound concentration and normalized to DMSO controls. Half maximal inhibition concentration (IC50) values are calculated with a four-parameter logistic fit using GraphPad Prism (version 8; La Jolla, CA).

[2] = target: T1, CDK2; experiment: NanoBRET CDK2 engagement assay; assay type: cell-based; parameters: expressed in transfected cells; conditions: OVCAR3 cells with stable CDK2-Luciferase vector, 24 hours treatment
Protocol: OVCAR3 cells with stable transfection of CDK2-Luciferase vector were seeded into 96-well plate at a density of 20,000 cells per well, 50 μL Opti-MEM medium supplemented with 1% FBS. Following morning, cells were treated with compounds of the disclosure, with starting concentration at 3 μM and ½ log dilution down to 0.3 nM for 24 hours at 37° C. DMSO treatment serves as control. Compound engagement was then measured using NanoBRE™ Kinase Kit from Promega (Part Number: CS1810C122, NanoBRET™ TE Kinase Kit #10, 1K) following manufacturer's instruction. For 24 hours treatment, tracer was added only for the last 2 hours. Briefly, 2.5 μL of complete 20× NanoBRET Tracer was added to the cells in suspension. Immediately prior to BRET measurements, prepare 3× Complete NanoBRET® Nano-Glo® Substrate in Opti-MEM without serum and phenol red. Without any delay, 25 μL per well of 3× Complete NanoBRET™ Nano-Glo® Substrate for a 96-well plate was added and mixed well. Signal was then read on a CLARIOstar® plate reader (measure donor emission (e.g., 450 nm) and acceptor emission (e.g., 610 nm or 630 nm) using a NanoBRET™-compatible luminometer. Target engagement was calculated with DMSO treatment as 100% signal, and IC50 was calculated by GraphPad Prism 9.

Row | SMILES | IC50 [1] | IC50 [2]
1 | O=C1CCC(N2C(=O)c3cccc(NCCOCCOCCOCCNCCCS(=O)(=O)N4CCC(Nc5ncc6ccc(=O)n(C7CCCC7)c6n5)CC4)c3C2=O)C(=O)N1 (centres unmarked) [Compound 25, 4-((15-((4-((8-cyclopentyl-7-oxo-7,8-dihydro-pyrido[2,3-d]pyrimidin-2-yl)amino)piperidin-1-yl)sulfonyl)-3,6,9-trioxa-12-azapentadecyl)-amino)-2-(2,6-dioxopiperidin-3-yl)isoindoline-1,3-dione] | 1.07 µM | 
2 | O=C1CCC(N2C(=O)c3cc(F)c(N4CCN(Cc5cccc(S(=O)(=O)N6CCC(Nc7ncc8cc(C(F)F)c(=O)n(C9CCCC9)c8n7)CC6)c5)CC4)cc3C2=O)C(=O)N1 (centres unmarked) [Compound 45, 5-(4-(3-((4-((8-cyclopentyl-6-(difluoromethyl)-7-oxo-7,8-dihydropyrido[2,3-d]pyrimidin-2-yl)-amino)piperidin-1-yl)sulfonyl)-benzyl)piperazin-1-yl)-2-(2,6-dioxopiperidin-3-yl)-6-fluoro-isoindoline-1,3-dione] | 0.267 µM | 0.378 µM
3 | O=C1CCC(N2Cc3cc(CN4CC(Oc5cccc(S(=O)(=O)N6CCC(Nc7ncc8ccc(=O)n(C9CCCC9)c8n7)CC6)c5)C4)ccc3C2=O)C(=O)N1 (centres unmarked) [Compound 67, 3-(5-((3-(3-((4-((8-cyclopentyl-7-oxo-7,8-dihydro-pyrido[2,3-d]pyrimidin-2-yl)amino)piperidin-1-yl)sulfonyl)phenoxy)azetidin-1-yl)methyl)-1-oxoisoindolin-2-yl)piperidine-2,6-dione] | 0.027 µM | 0.15 µM
4 | CN1C(=O)CCC(N2C(=O)c3cccc(OCC(=O)NCCOCCN4CCN(S(=O)(=O)N5CCC(Nc6ncc7ccc(=O)n(C8CCCC8)c7n6)CC5)CC4)c3C2=O)C1=O (centres unmarked) [compound 5, N-(2-(2-(4-((4-((8-cyclopentyl-7-oxo-7,8-dihydropyrido[2,3-d]pyrimidin-2-yl)amino)-piperidin-1-yl)sulfonyl)piperazin-1-yl)-ethoxy)ethyl)-2-((2-(1-methyl-2,6-dioxo-piperidin-3-yl)-1,3-dioxoisoindolin-4-yl)oxy)acetamide] | 5.86 µM | 4.11 µM
5 | CN(C[C@H]1CN(CCCc2cccc3c2n(C)c(=O)n3C2CCC(=O)NC2=O)CCO1)S(=O)(=O)N1CCC(Nc2ncc3ccc(=O)n(C4CCCC4)c3n2)CC1 (stereo partly drawn) [Compound 24, 4-((8-cyclopentyl-7-oxo-7,8-dihydropyrido[2,3-d]pyrimidin-2-yl)amino)-N-(((2R)-4-(3-(1-(2,6-dioxopiperidin-3-yl)-3-methyl-2-oxo-2,3-dihydro-1H-benzo[d]imidazol-4-yl)propyl)morpholin-2-yl)methyl)-N-methylpiperidine-1-sulfonamide] | 0.194 µM | 0.169 µM
6 | Cn1c(=O)n(C2CCC(=O)NC2=O)c2cccc(C#CCOC3CCN(S(=O)(=O)N4CCC(Nc5ncc6ccc(=O)n(C7CCCC7)c6n5)CC4)CC3)c21 (centres unmarked) [Compound 14, 3-(4-(3-((1-((4-((8-cyclopentyl-7-oxo-7,8-dihydropyrido[2,3-d]pyrimidin-2-yl)amino)-piperidin-1-yl)sulfonyl)piperidin-4-yl)oxy)prop-1-yn-1-yl)-3-methyl-2-oxo-2,3-dihydro-1H-benzo[d]imidazol-1-yl)piperidine-2,6-dione] | 0.633 µM | 0.668 µM
7 | O=C(COc1cccc2c1C(=O)N(C1CCC(=O)NC1=O)C2=O)NCCOCCOCCN1CCN(S(=O)(=O)N2CCC(Nc3ncc4ccc(=O)n(C5CCCC5)c4n3)CC2)CC1 (centres unmarked) [compound 2, N-(2-(2-(2-(4-((4-((8-cyclopentyl-7-oxo-7,8-dihydropyrido[2,3-d]pyrimidin-2-yl)amino)-piperidin-1-yl)sulfonyl)piperazin-1-yl)-ethoxy)ethoxy)ethyl)-2-((2-(2,6-dioxo-piperidin-3-yl)-1,3-dioxoisoindolin-4-yl)-oxy)acetamide] | 1.28 µM | 1.31 µM
8 | O=C1CCC(N2Cc3cc(N4CCC(Oc5cccc(S(=O)(=O)N6CCC(Nc7ncc8ccc(=O)n(C9CCCC9)c8n7)CC6)c5)CC4)ccc3C2=O)C(=O)N1 (centres unmarked) [Compound 33, 3-(5-(4-(3-((4-((8-cyclopentyl-7-oxo-7,8-dihydro-pyrido[2,3-d]pyrimidin-2-yl)amino)piperidin-1-yl)sulfonyl)phenoxy)piperidin-1-yl)-1-oxoiso-indolin-2-yl)piperidine-2,6-dione] | 0.313 µM | 
9 | CN(CCCOCCCc1cccc2c1n(C)c(=O)n2C1CCC(=O)NC1=O)S(=O)(=O)N1CCC(Nc2ncc3ccc(=O)n(C4CCCC4)c3n2)CC1 (centres unmarked) [Compound 19, 4-((8-cyclopentyl-7-oxo-7,8-dihydropyrido[2,3-d]pyrimidin-2-yl)amino)-N-(3-(3-(1-(2,6-dioxo-piperidin-3-yl)-3-methyl-2-oxo-2,3-dihydro-1H-benzo[d]imidazol-4-yl)propoxy)propyl)-N-methylpiperidine-1-sulfonamide] | 0.707 µM | 0.253 µM
10 | O=C1CCC(N2C(=O)c3cc(F)c(N4CC5CCC(C4)N5Cc4cccc(S(=O)(=O)N5CCC(Nc6ncc7ccc(=O)n(C8CCCC8)c7n6)CC5)c4)cc3C2=O)C(=O)N1 (centres unmarked) [Compound 49, 5-(8-(3-((4-((8-cyclopentyl-7-oxo-7,8-dihydro-pyrido[2,3-d]pyrimidin-2-yl)amino)piperidin-1-yl)sulfonyl)benzyl)-3,8-diazabicyclo[3.2.1]octan-3-yl)-2-(2,6-dioxopiperidin-3-yl)-6-fluoroi-soindoline-1,3-dione] | 0.836 µM | 0.272 µM
11 | O=C1CCC(N2C(=O)c3cccc(CCCOCCOCCNS(=O)(=O)N4CCC(Nc5ncc6ccc(=O)n(C7CCCC7)c6n5)CC4)c3C2=O)C(=O)N1 (centres unmarked) [Compound 11, 4-((8-cyclopentyl-7-oxo-7,8-dihydropyrido[2,3-d]pyrimidin-2-yl)amino)-N-(2-(2-(3-(2-(2,6-dioxopiperidin-3-yl)-1,3-dioxoisoindolin-4-yl)-propoxy)ethoxy)ethyl)piperidine-1-sulfonamide] | 2.06 µM | 0.499 µM
12 | O=C1CCC(N2Cc3cc(N4CC(Oc5cccc(S(=O)(=O)N6CCC(Nc7ncc8ccc(=O)n(C9CCCC9)c8n7)CC6)c5)C4)ccc3C2=O)C(=O)N1 (centres unmarked) [Compound 74, 3-(5-(3-(3-((4-((8-cyclopentyl-7-oxo-7,8-dihydro-pyrido[2,3-d]pyrimidin-2-yl)amino)piperidin-1-yl)sulfonyl)phenoxy)azetidin-1-yl)-1-oxoisoindolin-2-yl)piperidine-2,6-dione] | 0.1 µM | 
13 | CC1(O)CCCC1n1c(=O)ccc2cnc(NC3CCN(S(=O)(=O)c4cccc(CN5CCN(c6cc7c(cc6F)C(=O)N(C6CCC(=O)NC6=O)C7=O)CC5)c4)CC3)nc21 (centres unmarked) [Compound 44, 2-(2,6-dioxopiperidin-3-yl)-5-fluoro-6-(4-(3-((4-((8-(2-hydroxy-2-methylcyclopentyl)-7-oxo-7,8-dihydropyrido[2,3-d]pyrimidin-2-yl)amino)-piperidin-1-yl)sulfonyl)benzyl)piperazin-1-yl)-isoindoline-1,3-dione] | 0.405 µM | 
14 | O=C1CCC(N2C(=O)c3cccc(NC(=O)COCCOCCOCCOCCNS(=O)(=O)N4CCC(Nc5ncc6ccc(=O)n(C7CCCC7)c6n5)CC4)c3C2=O)C(=O)N1 (centres unmarked) [Compound 26, 14-((4-((8-cyclopentyl-7-oxo-7,8-dihydro-pyrido[2,3-d]pyrimidin-2-yl)amino)piperidine)-1-sulfonamido)-N-(2-(2,6-dioxopiperidin-3-yl)-1,3-dioxoisoindolin-4-yl)-3,6,9,12-tetraoxatetradecan-amide] | 6.09 µM | 
